Measurements: paper PMC5634784, “Clearance of beta-amyloid is facilitated by apolipoprotein E and circulating high-density lipoproteins in bioengineered human vessels” (eLife, 2017)

Legend:
Format in all cases: cell-based, human
[1] = system: bioengineered tripartite vessels; assay: Aβ transport across tripartite bioengineered cerebral vessels (ELISA); settings: for transport of fibrils compared to monomers: tripartite vessels, pre-aggregated (37°C, 48 hr) or monomeric Aβ 1 μM anteluminal
Description: Bioengineered constructs were fabricated using a dynamic, semi-pulsatile flow bioreactor system. Tubular biodegradable scaffolds (length 1.5 cm and inner diameter 2 mm) were produced as described ([Robert et al., 2013a]; [Robert et al., 2017]) with minor modifications. Briefly, non-woven polyglycolic acid (PGA, Biomedical Structure, Warwick, RI) meshes (thickness: 1 mm and density: 70 mg/cc) were dip-coated with polycaprolactone (PCL) and polylactate (PLA) by dipping PGA mesh in a solution of 1.75% (w/w) PCL/PLA/tetrahydrofuran (THF) solution (Sigma-Aldrich, St. Louis, MO), shaped into tubes using heat, and externally coated with a 10% PCL/THF (w/w) solution. Scaffolds were sterilized by immersion in 70% ethanol for 30 min followed by three PBS washes and then immersion in advanced DMEM supplemented with 10% FBS for at least 12 hr. UCMFB were seeded at density of 2−3 × 10^6 cells/cm^2 on the inner surface of the scaffold using fibrin (fibrinogen 10 mg clottable protein/ml PBS and thrombin 100–10 mU/ml PBS) as a cell carrier that was added directly to the scaffold, then incubated under static conditions for a minimum of 3 days before exposure to dynamic flow. The flow of nutrient medium (Advanced DMEM supplemented with 10% FBS, 1% L-glutamine and 0.05% Pen/Strep) was directed through the lumen of the bioreactor circulation loop to mimic blood flow for a minimum of one week. Vascular intermediates were then seeded with HUVEC (1 × 10^6 cells/cm^2) and cultivated first in static conditions for a minimum of 5 days in EGM−2 supplemented as above. For bipartite vessels, after the static phase, vascular grafts were placed back in the bioreactor for 14 additional days with increasing medium flow to a final rate of 10 ml/min by the 10th day). For tripartite vessels, after the static phase after HUVEC addition, primary astrocytes were seeded (1 × 10^6 cells/cm^2) using fibrin as a cell carrier as above on the antelumen side of the tissue. After 5 min at RT, grafts were placed under flow conditions with EGM-2 supplemented as above in the circulation chamber and complete astrocyte medium in the tissue chamber for 14 additional days with increasing medium flow to 10 ml/min by the 10th day.
The HFIP was removed by evaporation overnight and stocks were stored at −20°C. On the day of the assay, soluble monomers were prepared by reconstituting the peptide film in DMSO to 5 mM, diluted further to 100 µM in RPMI without FBS. 100 μl of Aβ solution was injected in the tissue chamber containing 900 μl of DMEM (Gibco) without FBS to the desired concentration using a syringe under flow conditions. […] For luminal recovery, 100 μl circulating medium was collected at the indicated time.
All experiments were conducted under an approved clinical protocol (UBC Clinical Ethics Research Board H14-03357). Upon receipt of written informed consent, 100 ml of fasted blood was collected from normolipidemic healthy donors into vacutainer tubes containing EDTA. Plasma HDL (1.063–1.21 g/ml) was isolated by sequential potassium bromide gradient ultracentrifugation as described ([Robert et al., 2013b]). […] Total protein concentration was assessed using the BCA assay (Thermofisher Scientific). Recombinant apoE2 and apoE4 were commercially purchased and solubilized following the manufacture’s instructions (ABCAM, apoE2 ab55210, apoE3 ab123764 and apoE4 ab50243). […] ApoE concentrations were measured using ELISA as previously described ([Fan et al., 2016]). […]

[2] = system: endothelial barrier of bioengineered vessels; assay: Endothelium integrity: Evans blue extravasation; settings: 0.5% in circulation loop 10 min, PBS wash 20 min
Description: Evans blue (Sigma-Aldrich) was injected at a final concentration of 0.5% in the circulation loop of the bioreactor for 10 min followed by continuous PBS washing for 20 min. Vessels were cut open longitudinally and en face preparations were analysed macroscopically with photo documentation. Restriction of paracellular transport was determined by measuring FITC dextran extravasation to the tissue chamber as described ([Gaillard et al., 2001]). […] After 1 hr tissue media was collected, fluorescent was read at RT on an EnSpire 2300 Multilabel Plate Reader (492Ex/518Em) and the permeability coefficient (Papp) was calculated using the following equation: Papp=(dQ/dt)*(1/A*C0*60) where dQ/dt is the amount of FITC-dextran transported per minute (ng/min), A is the surface area of the tissue (cm [[Attems and Jellinger, 2014]]), C0 is the initial concentration of FITC-Dextran (ng/ml) and 60 is the conversion from minutes to seconds.

NO synthase = assay: NO measurement: conversion of L-3H-arginine to L-3H-citruline in tripartite vessels
Description: NO synthesis was measured as described ([Robert et al., 2013a]) using a commercial NOS activity assay kit (Caymenchemical, Ann Arbor, MI). Briefly, a 2–3 mm ring of vascular tissue was mechanically ground in 150 μl of ice cold homogenized buffer (25 mM Tris-Cl, pH7.4, 1 mM EDTA and 1 mM EGTA) and centrifuged 15 min at 4°C at 10,000 g. The supernatant was aliquoted and incubated in reaction buffer containing 25 mM Tris-Cl, pH7.4, 0.25 mM EDTA, 0.6 mM CaCl2, 1 mM NADP, 200 nM calmodulin, 3 µM tetrahydrobiopterin, 1 µM flavin adenine dinucleotide, 1 µM flavin adenine monoucleotide and 0.2 µCi L-^3H-arginine; PerkinElmer, Waltham, MA) in the presence of 10 nM acetylcholine (Ach), 0.2 mg/ml HDL or 1 mM L-NG-nitroarginine methyl ester (L-NAME). After 60 min at 37°C, the reaction was stopped by adding 400 μl of stop buffer ([…] HEPES, 5 mM EDTA, pH 5.5). The solution was loaded onto an ion exchange column equilibrated with stop buffer to separate L-^3H-citruline from L-^3H-arginine. Scintillation mix (Ultimate Gold, PerkinElmer) was added to the supernatant and counted using LS6500 β-counter (Beckman Coulter, Brea, CA). The percent citrulline formed was calculated as follows: % conversion = (cpm reaction-cpm background)/cpm total *100.

[3] = system: bioengineered tripartite vessels; assay: Aβ accumulation in tripartite bioengineered cerebral vessels (ELISA); settings: GW3965 0.8 μM 72 hr, HDL 200 μg/ml luminal
Description: Bioengineered constructs were fabricated using a dynamic, semi-pulsatile flow bioreactor system. Tubular biodegradable scaffolds (length 1.5 cm and inner diameter 2 mm) were produced as described ([Robert et al., 2013a]; [Robert et al., 2017]) with minor modifications. Briefly, non-woven polyglycolic acid (PGA, Biomedical Structure, Warwick, RI) meshes (thickness: 1 mm and density: 70 mg/cc) were dip-coated with polycaprolactone (PCL) and polylactate (PLA) by dipping PGA mesh in a solution of 1.75% (w/w) PCL/PLA/tetrahydrofuran (THF) solution (Sigma-Aldrich, St. Louis, MO), shaped into tubes using heat, and externally coated with a 10% PCL/THF (w/w) solution. Scaffolds were sterilized by immersion in 70% ethanol for 30 min followed by three PBS washes and then immersion in advanced DMEM supplemented with 10% FBS for at least 12 hr. […]
All experiments were conducted under an approved clinical protocol (UBC Clinical Ethics Research Board H14-03357). […] Total protein concentration was assessed using the BCA assay (Thermofisher Scientific). […] ApoE concentrations were measured using ELISA as previously described ([Fan et al., 2016]). […]

[4] = system: apoE secretion by astrocytes; assay: Native apoE secretion by astrocytes in tripartite vessels (ELISA); settings: astrocytes APOE3/E3, GW3965 1 μM circulated through lumen 72 hr
Description: All experiments were conducted under an approved clinical protocol (UBC Clinical Ethics Research Board H14-03357). Upon receipt of written informed consent, 100 ml of fasted blood was collected from normolipidemic healthy donors into vacutainer tubes containing EDTA. Plasma HDL (1.063-1.21 g/ml) was isolated by sequential potassium bromide gradient ultracentrifugation as described ([Robert et al., 2013b]). The purity of the HDL preparations was verified by sodium dodecyl sulfate-polyacrylamide gel electrophoresis (SDS-PAGE) followed by Coomassie blue staining to ensure no LDL or albumin contamination (not shown). Total protein concentration was assessed using the BCA assay (Thermofisher Scientific). Recombinant apoE2 and apoE4 were commercially purchased and solubilized following the manufacture's instructions (ABCAM, apoE2 ab55210, apoE3 ab123764 and apoE4 ab50243). […] ApoE concentrations were measured using ELISA as previously described ([Fan et al., 2016]). Briefly, ELISA plates were coated overnight with anti-human apoE mAB […] antibody (MabTech, Cincinnati, OH, RRID: AB_1925746) at 1.55 μg/mL in PBS at 4°C, washed two times with PBST (0.05% Tween 20 in PBS), and blocked with 0.1% Blocker A (MesoScale Discovery, Rockville, MA) in PBST. […] Fluorescence was read after 15 min at RT on an EnSpire 2300 Multilabel Plate Reader (325Ex/420Em).

[5] = system: bioengineered bipartite vessels; assay: Aβ transport from anteluminal tissue chamber to luminal circulation across bipartite vessels (ELISA); settings: 1 μM monomers anteluminal, luminal medium sampled over 4 hr
Description: Bioengineered constructs were fabricated using a dynamic, semi-pulsatile flow bioreactor system. Tubular biodegradable scaffolds (length 1.5 cm and inner diameter 2 mm) were produced as described ([Robert et al., 2013a]; [Robert et al., 2017]) with minor modifications. Briefly, non-woven polyglycolic acid (PGA, Biomedical Structure, Warwick, RI) meshes (thickness: 1 mm and density: 70 mg/cc) were dip-coated with polycaprolactone (PCL) and polylactate (PLA) by dipping PGA mesh in a solution of 1.75% (w/w) PCL/PLA/tetrahydrofuran (THF) solution (Sigma-Aldrich, St. Louis, MO), shaped into tubes using heat, and externally coated with a 10% PCL/THF (w/w) solution. Scaffolds were sterilized by immersion in 70% ethanol for 30 min followed by three PBS washes and then immersion in advanced DMEM supplemented with 10% FBS for at least 12 hr. UCMFB were seeded at density of 2−3 × 10^6 cells/cm^2 on the inner surface of the scaffold using fibrin (fibrinogen 10 mg clottable protein/ml PBS and thrombin 100–10 mU/ml PBS) as a cell carrier that was added directly to the scaffold, then incubated under static conditions for a minimum of 3 days before exposure to dynamic flow. The flow of nutrient medium (Advanced DMEM supplemented with 10% FBS, 1% L-glutamine and 0.05% Pen/Strep) was directed through the lumen of the bioreactor circulation loop to mimic blood flow for a minimum of one week. […]

[6] = system: bioengineered bipartite vessels; assay: Aβ fibrillization in bioengineered vessels (Thioflavin-S staining, Thioflavin-T quantification)

Aβ40 fibrils: Aβ40 incubated at 37°C for 48 hr after reconstitution in RPMI
transport of fibrils compared to monomers ([1]; over 4 hr): significantly slower transport

Cc1cc(-c2ccc(/N=N/c3ccc4c(S(=O)(=O)O)cc(S(=O)(=O)O)c(N)c4c3O)c(C)c2)ccc1/N=N/c1ccc2c(S(=O)(=O)O)cc(S(=O)(=O)O)c(N)c2c1O [Evans blue]
Evans blue penetration into tissue without EC ([2]; tissue prepared without EC): penetrated into tissue prepared without EC | Evans blue penetration into vessels with endothelium ([2]; vessels seeded with EC): excluded

CC(=O)OCC[N+](C)(C)C [acetylcholine]
NO production: conversion of L-3H-arginine to L-3H-citruline (NO synthase; 10 nM acetylcholine or 200 μg/ml HDL, 60 min at 37°C): significant increase

O=C(O)Cc1cccc(OCCCN(Cc2cccc(C(F)(F)F)c2Cl)CC(c2ccccc2)c2ccccc2)c1 [GW3965]
effect on accumulation of Aβ40 within tripartite tissues after 24 hr ([3]; Aβ40 1 μM anteluminal): neither GW3965, HDL, nor both GW3965 and HDL affected accumulation | effect on accumulation of Aβ42 within tripartite tissues after 24 hr ([3]; Aβ42 1 μM anteluminal): neither GW3965, HDL, nor both GW3965 and HDL affected accumulation | secretion of native apoE into medium [4]: significantly stimulated the secretion of native apoE | effect on Aβ40 transport through tripartite vessels over 4 hr ([1]; Aβ40 1 μM anteluminal, GW3965 0.8 μM 72 hr, HDL 200 μg/ml luminal): neither GW3965 alone nor HDL alone modified the rate | effect on Aβ42 transport through tripartite vessels over 4 hr ([1]; Aβ42 1 μM anteluminal, GW3965 0.8 μM 72 hr, HDL 200 μg/ml luminal): neither GW3965 alone nor HDL alone modified the rate

Aβ42: Recombinant Aβ42 peptide (California Peptide Research), soluble monomers
Aβ transport into circulating medium, bioengineered vessels versus scaffold-only controls [5]: transported at a slower rate | beta-sheet formation in tissue lysates (Thioflavin-T) ([6]; 1 μM monomers anteluminal, RIPA lysate, 20 μM Thioflavin-T, ex 440 nm / em 490 nm): increasing signal over time | Aβ fibrillization in the bioengineered vessels (Thioflavin-S) ([6]; monomers 0, 0.1, 1.0 and 10 μM anteluminal, 48 hr, Thioflavin-S staining): dose-dependent fibrillization | Aβ recovery into circulation medium, tripartite compared to bipartite vessels ([1]; 1 μM monomers anteluminal, over 4 hr): increased

Aβ42 fibrils: Aβ42 incubated at 37°C for 48 hr after reconstitution in RPMI
transport of fibrils compared to monomers ([1]; over 4 hr): significantly slower transport

COC(=O)[C@@H](N)CCCNC(N)=N[N+](=O)[O-] [L-NAME, L-NG-nitroarginine methyl ester]
NO production in the presence of NO synthase inhibitor (NO synthase; 1 mM L-NAME with Ach or HDL stimulation, 60 min): the conversion was blocked
